Experimental data published in US10940139B2, “Compounds that interact with the Ras superfamily for the treatment of cancers, inflammatory diseases, rasopathies, and fibrotic disease” (Shy Therapeutics LLC, priority 2017, dated 2021).

Columns and labels:
[1] = test system: TNFα production in RAW 264.7 macrophage cell line; experiment: Mouse TNF alpha quantification assay (LPS-stimulated macrophages, ELISA); assay type: cell-based; conditions: RAW264.7, RAW 264.7 murine leukemia virus transformed macrophage cell lines, LPS stimulation, read-out: TNF-α % Inhibition at 30 μM
[2] = test system: IL6 production in RAW 264.7 macrophage cell line; experiment: Mouse IL6 quantification assay (LPS-stimulated macrophages, ELISA); assay type: cell-based; conditions: RAW264.7, RAW 264.7 murine leukemia virus transformed macrophage cell lines, LPS stimulation, read-out: IL-6 % Inhibition at 30 μM

Compound: O=C(c1csc2c(O)nc(-c3ccccn3)nc12)N1CCNC(c2ccc(Cl)cc2)C1 (centres unmarked) [drawing 2352]
- inhibition at 30 µM [1]: 1 to 25%
- inhibition at 30 µM [2]: 76 to 100%

Compound: O=C(Cn1cnc2ccccc2c1=O)Nc1nc(-c2ccccn2)cs1 [drawing 2015]
- inhibition at 30 µM [1]: 1 to 25%
- inhibition at 30 µM [2]: 51 to 75%

Compound: Oc1nc(-c2ccccn2)nc2c1CCCN2 [drawing 2070]
- inhibition at 30 µM [1]: 1 to 25%
- inhibition at 30 µM [2]: 26 to 50%

Compound: COC(C)(C)c1ccc(-c2csc3c(O)nc(-c4nccn4C)nc23)cc1 [drawing 2445]
- inhibition at 30 µM [1]: 0%
- inhibition at 30 µM [2]: 26 to 50%

Compound: COCCCCNC(=O)c1csc2nc(-c3ccccn3)nc(N3CCS(=O)(=O)CC3)c12 [drawing 2219]
- inhibition at 30 µM [1]: 0%
- inhibition at 30 µM [2]: 26 to 50%

Compound: O=C(NCCc1cccnc1)c1cc2nc(-c3ccccn3)nc(O)c2s1 [drawing 2236]
- inhibition at 30 µM [1]: 1 to 25%
- inhibition at 30 µM [2]: 26 to 50%

Compound: O=C(CCn1ccc2ccccc21)Nc1nnc(-c2ccccn2)[nH]1 [drawing 1934]
- inhibition at 30 µM [1]: 1 to 25%
- inhibition at 30 µM [2]: 1 to 25%

Compound: CC(C)COc1ccc(-c2csc3c(O)nc(-c4cn(C)cn4)nc23)cn1 [drawing 2432]
- inhibition at 30 µM [1]: 26 to 50%
- inhibition at 30 µM [2]: 76 to 100%

Compound: Cc1sc2c(O)nc(-c3ccccn3)nc2c1-c1ccncc1 [drawing 2331]
- inhibition at 30 µM [1]: 0%
- inhibition at 30 µM [2]: 26 to 50%

Compound: O=C(c1csc2c(O)nc(-c3ccccn3)nc12)N1CCC(c2ccncc2)C1 (centres unmarked) [drawing 2232]
- inhibition at 30 µM [1]: 1 to 25%
- inhibition at 30 µM [2]: 76 to 100%

Compound: Cc1cccc(C(=O)Nc2nnc(-c3ccccn3)[nH]2)n1 [drawing 1976]
- inhibition at 30 µM [1]: 0%
- inhibition at 30 µM [2]: 1 to 25%

Compound: O=C(Cc1ccc(-n2cnnn2)cc1)Nc1nnc(-c2ccccn2)[nH]1 [drawing 1927]
- inhibition at 30 µM [1]: 1 to 25%
- inhibition at 30 µM [2]: 0%

Compound: Oc1nc(-c2ccccn2)nc2c(-c3cnc4ccccc4c3)csc12 [drawing 2300]
- inhibition at 30 µM [1]: 1 to 25%
- inhibition at 30 µM [2]: 76 to 100%

Compound: COc1ccc(C2CN(C(=O)c3csc4c(O)nc(-c5ccccn5)nc34)CCO2)cc1 (centres unmarked) [drawing 2193]
- inhibition at 30 µM [1]: 1 to 25%
- inhibition at 30 µM [2]: 76 to 100%

Compound: Oc1nc(-c2ccccn2)nc2cc(-c3cccc(Br)c3)sc12 [drawing 2391]
- inhibition at 30 µM [1]: 1 to 25%
- inhibition at 30 µM [2]: 1 to 25%

Compound: Cn1ccnc1-c1nc(O)c2scc(-c3ccc(F)cc3F)c2n1 [drawing 2443]
- inhibition at 30 µM [1]: 1 to 25%
- inhibition at 30 µM [2]: 51 to 75%

Compound: CCOc1cc(S(=O)(=O)N(Cc2ccccc2)Cc2ccccc2)c(OCC)cc1C [drawing 2059]
- inhibition at 30 µM [1]: 1 to 25%
- inhibition at 30 µM [2]: 1 to 25%

Compound: O=C(c1csc2c(O)nc(-c3ccccn3)nc12)N1CCN(c2ccncc2)CC1 [drawing 2108]
- inhibition at 30 µM [1]: 0%
- inhibition at 30 µM [2]: 1 to 25%

Compound: COCCNc1nc(-c2nccn2C)nc2sc(C3CCOCC3)c(-c3ccccc3)c12 [drawing 2417]
- inhibition at 30 µM [1]: 76 to 100%
- inhibition at 30 µM [2]: 76 to 100%

Compound: Cn1ccnc1-c1nc(O)c2c(-c3ccccc3)c(-c3ccccc3)sc2n1 [drawing 2363]
- inhibition at 30 µM [1]: 26 to 50%
- inhibition at 30 µM [2]: 1 to 25%

Compound: O=C(Nc1nnc(-c2ccccn2)[nH]1)c1ccc(CN2C(=O)CCC2=O)cc1 [drawing 1950]
- inhibition at 30 µM [1]: 1 to 25%
- inhibition at 30 µM [2]: 0%

Compound: CC(C)C(=O)Nc1nc(CC(=O)Nc2nnc(-c3ccccn3)[nH]2)cs1 [drawing 1990]
- inhibition at 30 µM [1]: 1 to 25%
- inhibition at 30 µM [2]: 0%

Compound: O=C(Nc1nc(-c2ccccn2)cs1)c1ccncc1 [drawing 2019]
- inhibition at 30 µM [1]: 1 to 25%
- inhibition at 30 µM [2]: 26 to 50%

Compound: Oc1nc(-c2ccccn2)nc2c(-c3ccc(OC4CCOCC4)cc3)csc12 [drawing 2259]
- inhibition at 30 µM [1]: 0%
- inhibition at 30 µM [2]: 76 to 100%

Compound: O=C(CCc1cncnc1)Nc1nc(-c2ccccn2)nc2sccc12 [drawing 2283]
- inhibition at 30 µM [1]: 0%
- inhibition at 30 µM [2]: 26 to 50%

Compound: CC(CC(=O)N1CCOCC1)c1nc(-c2ccccn2)nc2scc(-c3ccccc3)c12 (centres unmarked)
- inhibition at 30 µM [1]: 1 to 25%
- inhibition at 30 µM [2]: 1 to 25%

Compound: COc1cccc(N2CCN(C(=O)c3csc4c(O)nc(-c5ccccn5)nc34)CC2)c1 [drawing 2167]
- inhibition at 30 µM [1]: 0%
- inhibition at 30 µM [2]: 26 to 50%

Compound: COCCNc1nc(-c2cn(C)cn2)nc2sc(-c3ccccc3)c(-c3ccccc3)c12 [drawing 2410]
- inhibition at 30 µM [1]: 76 to 100%
- inhibition at 30 µM [2]: 76 to 100%

Compound: Cc1cc2c(=O)nc(-c3cc(OCC(F)F)ccn3)[nH]c2s1 [drawing 2031]
- inhibition at 30 µM [1]: 1 to 25%
- inhibition at 30 µM [2]: 1 to 25%

Compound: COCCCCNC(=O)c1csc2nc(-c3ccccn3)nc(N3CCOCC3)c12 [drawing 2205]
- inhibition at 30 µM [1]: 1 to 25%
- inhibition at 30 µM [2]: 1 to 25%

Compound: COc1ccc(-c2c(C)sc3c(O)nc(-c4nccn4C)nc23)cn1 [drawing 2428]
- inhibition at 30 µM [1]: 1 to 25%
- inhibition at 30 µM [2]: 1 to 25%

Compound: COCC(C)Nc1nc(-c2nccn2C)nc2sc(-c3ccccc3)c(-c3ccccc3)c12 (centres unmarked) [drawing 2404]
- inhibition at 30 µM [1]: 76 to 100%
- inhibition at 30 µM [2]: 76 to 100%

Compound: COc1cnc(-c2cn(C)cn2)nc1O [drawing 2339]
- inhibition at 30 µM [1]: 0%
- inhibition at 30 µM [2]: 26 to 50%

Compound: O=C(Cn1c(=O)[nH]c2ccccc21)Nc1nnc(-c2ccccn2)[nH]1 [drawing 1987]
- inhibition at 30 µM [1]: 1 to 25%
- inhibition at 30 µM [2]: 1 to 25%

Compound: Cc1sc2c(O)nc(-c3nccn3C)nc2c1-c1cccc(C(F)(F)F)c1 [drawing 2426]
- inhibition at 30 µM [1]: 0%
- inhibition at 30 µM [2]: 0%

Compound: Cc1ccc(CC(=O)Nc2nnc(-c3ccccn3)[nH]2)s1 [drawing 1975]
- inhibition at 30 µM [1]: 0%
- inhibition at 30 µM [2]: 1 to 25%

Compound: O=C(c1csc2c(O)nc(-c3ccccn3)nc12)N1CCN(c2ccc(O)c(Cl)c2)CC1 [drawing 2214]
- inhibition at 30 µM [1]: 0%
- inhibition at 30 µM [2]: 26 to 50%

Compound: Oc1nc(-c2ccccn2)nc2scc(Br)c12 [drawing 2128]
- inhibition at 30 µM [1]: 76 to 100%
- inhibition at 30 µM [2]: 76 to 100%

Compound: COCCNc1nc(-c2cccc(N)n2)nc2sc(-c3ccccc3)c(-c3ccccc3)c12 [drawing 2418]
- inhibition at 30 µM [1]: 26 to 50%
- inhibition at 30 µM [2]: 26 to 50%

Compound: O=C(Nc1nnc(-c2ccccn2)[nH]1)C1CC1c1ccc(F)cc1 (centres unmarked) [drawing 1974]
- inhibition at 30 µM [1]: 1 to 25%
- inhibition at 30 µM [2]: 1 to 25%

Compound: Cn1cnc(-c2nc(O)c3scc(-c4cccc(OC(F)(F)F)c4)c3n2)c1 [drawing 2433]
- inhibition at 30 µM [1]: 0%
- inhibition at 30 µM [2]: 0%

Compound: Cc1cccc(CN(Cc2ccccn2)Cc2nccn2C)c1 [drawing 2048]
- inhibition at 30 µM [1]: 1 to 25%
- inhibition at 30 µM [2]: 26 to 50%

Compound: Cc1sc2c(O)nc(-c3nccn3C)nc2c1-c1ccccc1Cl [drawing 2429]
- inhibition at 30 µM [1]: 1 to 25%
- inhibition at 30 µM [2]: 26 to 50%

Compound: Oc1nc(-c2ccccn2)nc2cc(-c3ccccc3)sc12 [drawing 2389]
- inhibition at 30 µM [1]: 1 to 25%
- inhibition at 30 µM [2]: 26 to 50%

Compound: COc1ccc(COCC(=O)N2CCCc3c(O)nc(-c4ccccn4)nc32)cc1 [drawing 2072]
- inhibition at 30 µM [1]: 1 to 25%
- inhibition at 30 µM [2]: 51 to 75%

Compound: CCN(CC)C(=O)c1sc2[nH]c(-c3ccccn3)nc(=O)c2c1C [drawing 2029]
- inhibition at 30 µM [1]: 1 to 25%
- inhibition at 30 µM [2]: 1 to 25%

Compound: Cn1cnc(-c2nc(O)c3sc(-c4ccncc4)c(-c4ccccc4)c3n2)c1 [drawing 2376]
- inhibition at 30 µM [1]: 0%
- inhibition at 30 µM [2]: 1 to 25%

Compound: C[C@H](NS(=O)(=O)c1ccccc1F)C(=O)Nc1nnc(-c2ccccn2)[nH]1 [drawing 1947]
- inhibition at 30 µM [1]: 1 to 25%
- inhibition at 30 µM [2]: 51 to 75%

Compound: Oc1nc(-c2ccccn2)nc2cc(-c3ccccc3Cl)sc12 [drawing 2383]
- inhibition at 30 µM [1]: 0%
- inhibition at 30 µM [2]: 26 to 50%
